Literature values in patent publication US8758840B2, “Method of treating areas of osteoarthritis in animals and human beings with milkweed seed oil” (Natural Fibers Corporation, priority 2011, dated 2014).

Test system: pro-inflammatory and matrix degradation mediators involved in osteoarthritis-induced cartilage degradation
Details: laboratory tests, Gabay et al. 2010

## CC[C@H](/C=C/[C@@H](C)[C@H]1CC[C@H]2[C@@H]3CC=C4C[C@@H](O)CC[C@]4(C)[C@H]3CC[C@]12C)C(C)C [stigmasterol]
  effect on pro-inflammatory and matrix degradation mediators: inhibits several pro-inflammatory and matrix degradation mediators
